Source: patent publication US10172857B2, “Boosting the effect of methotrexate through the combined use with lipophilic statins” (Dalana3, S.L., priority 2013, dated 2019)

Columns and labels:
Type in all cases: cell-based, human
HOS cells [1] = experiment: Analysis of the cell cycle by flow cytometry (PI); conditions: for changes in the distribution of the cell cycle (summary): FIGS. 11-15; for changes in the cell cycle with increasing doses: MTX 10-200 nM or SV 0.2-10 μM
Protocol: In order to analyse the changes in the distribution of the cell cycle the cells are seeded and treated under the same conditions employed with the Annexin V dye. The treated and untreated cells are resuspended in NP-40 at 1% dissolved in PBS additionally containing 50 μg/mL PI at a density of 3×10^5 cells/sample. The analysis and quantification of each of the experimental conditions is then carried out after 15 minutes incubation in the dark and at ambient temperature, following the same methodology as employed in the apoptosis experiments with Annexin-V staining (FACSCalibur flow cytometry and Cell Quest software).

osteosarcoma cells (HOS) = experiment: Cell viability test, trypan blue staining and counting in Neubauer chamber; conditions: for morphological changes: 0.5 μM simvastatin, 50 nM methotrexate or both, 48 and 72 hours; for effect on cell proliferation and cell death (trypan blue counts): FIGS. 6-10
Protocol: The HOS cells are cultivated in a culture medium supplemented with 5-10% heat-inactivated foetal bovine serum and 2 mM of L-glutamine, at 37° C., 95% humidity and 5% atmospheric CO2. The cells are treated with 0.5 μM of simvastatin and with 50 nM of MTX for 24, 48 and 72 hours. The cells are collected by trypsinization. This involves first aspirating the cultivation medium; the cells are then washed with 2-3 mL of PBS (sterile); add 0.5-1 mL of trypsin-EDTA solution (sterile); incubated at 37° for 5 minutes; the cells are collected with 5 mL of fresh culture medium; and the suspension is placed in a sterile 15 mL tube. The trypan blue dye is used in order to determine cell viability. Trypan blue is a colloid that enters the cells through breaks in the cell membrane. Therefore, the cells that appear in the image, clearly stained blue, are considered to be non-viable. For the measurement, mix 50 μL of the trypan blue solution and 50 μL of cell suspension are placed in a 1.5 mL tube. The mixture is homogenised and 10 μL placed in a Neubauer chamber. The total cells and the non-viable cells (completely stained blue) are counted.

HOS cells [2] = experiment: Apoptosis testing by flow cytometry (SubG0 peak); conditions: 48 hours
[3] = HOS cells, SV 1 μM alone, 24 hours

CCC(C)(C)C(=O)O[C@H]1C[C@@H](C)C=C2C=C[C@H](C)[C@H](CC[C@@H]3C[C@@H](O)CC(=O)O3)[C@H]21 [SV, simvastatin]
changes in the distribution of the cell cycle (summary) (HOS cells [1]): halts the cycle in phase G2/M | changes in the cell cycle with increasing doses (HOS cells [1]; HOS cells, 24 hours): decrease in the S phase and in the number of cells in phase G1 is notable, with subsequent accumulation in the phase G2/M | decrease of the G1 phase compared to the control (HOS cells [1]; [3]): 19.60% | increase of cells in the G2/M phase compared to the control (HOS cells [1]; [3]): 40.92% | morphological changes (osteosarcoma cells (HOS)): rounded cells | effect on cell proliferation and cell death (trypan blue counts) (osteosarcoma cells (HOS)): predominant effect on the induction of cell death | SV concentration at appearance of the SubG0 peak (cell death by apoptosis) (HOS cells [2]; SV 0.2-10 μM tested): < 0.2 µM | SV concentration at maximum of the SubG0 peak (HOS cells [2]; SV 0.2-10 μM tested): 10 µM | number of cells quantified in the SubG0 phase (HOS cells [2]; doses above 0.2 μM SV): notable increase

CN(Cc1cnc2nc(N)nc(N)c2n1)c1ccc(C(=O)N[C@@H](CCC(=O)O)C(=O)O)cc1 [MTX, (2S)-2-[(4-{[(2,4-diaminopteridin-6-yl)methyl](methyl)amino}benzoyl)amino]pentanedioic acid]
changes in the distribution of the cell cycle (summary) (HOS cells [1]): halt in the cycle in phase G1 | changes in the cell cycle with increasing doses (HOS cells [1]; HOS cells, 24 hours): decrease in the S phase and in the number of cells in phase G2/M, with subsequent accumulation in the phase G1 | morphological changes (osteosarcoma cells (HOS)): enlarged cells and even those with two nuclei | effect on cell proliferation and cell death (trypan blue counts) (osteosarcoma cells (HOS)): preferentially acts to slow cell proliferation | MTX concentration at incipient appearance of the SubG0 peak (cell death by apoptosis) (HOS cells [2]; MTX 10-200 nM tested): 20 NM | number of cells quantified in the SubG0 phase (HOS cells [2]; doses above 50 nM of MTX): significant increase
